The values that follow are results of earlier work, collected in publication PMC3073735 (Chemistry & biology, 2011).

Where no end group is shown, it is not given here.

This series deals with ferroportin. Particulars: ref Nemeth, et al., 2006.

With “M21Y: synthetic hepcidin mutant from the literature (DTHFPICIFCCGCCHRSKCGYCCKT-OH; disulfide (positions not given here); ends not checked; UniProt P81172 60-84, looked up, variant M21Y)”, the “activity compared with native hepcidin” value is listed as “comparable activity to native hepcidin”.
